Source: ChEMBL document CHEMBL2074008, “Structural determinants of P-glycoprotein-mediated transport of glucocorticoids” (Pharm Res, 2003)

These compounds were tested against ATP-dependent translocase ABCB1 (Homo sapiens, UniProt P08183) (assay: TP_TRANSPORTER: transepithelial transport in MDR1-expressing LLC-PK1 cells). Settings: pig.
Assay type: functional, cell-based

ATP-dependent translocase ABCB1, sequence (P08183 whole entry): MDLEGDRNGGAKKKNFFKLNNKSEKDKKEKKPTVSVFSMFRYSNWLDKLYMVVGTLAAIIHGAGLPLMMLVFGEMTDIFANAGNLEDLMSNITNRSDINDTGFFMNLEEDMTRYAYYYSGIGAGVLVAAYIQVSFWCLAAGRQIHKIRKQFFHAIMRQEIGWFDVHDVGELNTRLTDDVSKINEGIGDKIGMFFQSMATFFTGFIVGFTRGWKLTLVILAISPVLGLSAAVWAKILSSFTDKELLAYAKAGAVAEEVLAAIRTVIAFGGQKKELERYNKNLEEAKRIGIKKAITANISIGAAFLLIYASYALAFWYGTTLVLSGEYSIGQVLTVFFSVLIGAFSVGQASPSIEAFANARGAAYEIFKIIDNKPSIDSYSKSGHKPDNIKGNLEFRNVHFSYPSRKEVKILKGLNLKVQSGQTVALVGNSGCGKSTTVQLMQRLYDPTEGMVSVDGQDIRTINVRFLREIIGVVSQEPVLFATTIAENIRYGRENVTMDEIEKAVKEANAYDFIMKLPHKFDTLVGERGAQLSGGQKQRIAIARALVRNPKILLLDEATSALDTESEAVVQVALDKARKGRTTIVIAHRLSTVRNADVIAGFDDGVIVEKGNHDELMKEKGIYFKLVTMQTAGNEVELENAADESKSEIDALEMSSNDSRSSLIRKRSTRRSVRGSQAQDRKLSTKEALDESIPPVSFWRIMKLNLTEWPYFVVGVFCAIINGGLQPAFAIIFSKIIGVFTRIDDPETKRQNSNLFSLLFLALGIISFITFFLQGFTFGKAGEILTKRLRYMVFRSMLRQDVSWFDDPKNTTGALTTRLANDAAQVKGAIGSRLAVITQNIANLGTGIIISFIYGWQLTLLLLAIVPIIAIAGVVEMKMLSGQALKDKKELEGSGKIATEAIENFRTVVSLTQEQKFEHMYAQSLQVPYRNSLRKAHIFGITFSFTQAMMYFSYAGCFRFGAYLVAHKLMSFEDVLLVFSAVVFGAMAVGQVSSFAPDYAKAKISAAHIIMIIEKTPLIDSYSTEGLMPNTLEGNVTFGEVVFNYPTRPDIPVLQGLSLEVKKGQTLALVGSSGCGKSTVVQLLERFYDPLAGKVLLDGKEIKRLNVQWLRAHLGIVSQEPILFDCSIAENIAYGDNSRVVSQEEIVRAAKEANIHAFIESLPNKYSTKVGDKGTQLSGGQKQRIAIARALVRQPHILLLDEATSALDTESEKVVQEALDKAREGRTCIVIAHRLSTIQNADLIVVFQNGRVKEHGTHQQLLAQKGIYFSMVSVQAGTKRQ

Row | SMILES | Activity
1 | C[C@]12CCC(=O)C=C1[C@H](O)C[C@@H]1[C@@H]2[C@@H](O)C[C@@]2(C)[C@H]1CC[C@]2(O)C(=O)CO | substrate [+]
2 | C[C@]12CCC(=O)C=C1[C@@H](O)C[C@@H]1[C@@H]2[C@@H](O)C[C@@]2(C)[C@H]1CC[C@]2(O)C(=O)CO | substrate [+]
3 | C[C@H]1C[C@H]2[C@@H]3CCC4=CC(=O)C=C[C@]4(C)[C@@]3(F)[C@@H](O)C[C@]2(C)[C@@]1(O)C(=O)CO [BETAMETHASONE] | substrate [+]
4 | C[C@]12CCC(=O)C=C1CC[C@@H]1[C@@H]2C(=O)C[C@@]2(C)[C@H]1CC[C@]2(O)C(=O)CO [CORTISONE] | substrate [+]
5 | C[C@@H]1C[C@H]2[C@@H]3CCC4=CC(=O)C=C[C@]4(C)[C@@]3(F)[C@@H](O)C[C@]2(C)[C@@]1(O)C(=O)CO [DEXAMETHASONE] | substrate [+]

Further lines, results first:

Row | Activity | SMILES
6 | substrate [+] | C[C@]12CCC(=O)C=C1CC[C@@H]1[C@@H]2[C@@H](O)C[C@@]2(C)[C@H]1CC[C@]2(O)C(=O)CO [HYDROCORTISONE]
7 | substrate [+] | C[C@H]1C[C@@H]2[C@H]([C@@H](O)C[C@@]3(C)[C@H]2CC[C@]3(O)C(=O)CO)[C@@]2(C)C=CC(=O)C=C12 [METHYLPREDNISOLONE]
8 | substrate [+] | C[C@]12C=CC(=O)C=C1CC[C@@H]1[C@@H]2[C@@H](O)C[C@@]2(C)[C@H]1CC[C@]2(O)C(=O)CO [PREDNISOLONE]
9 | substrate [+] | C[C@]12C=CC(=O)C=C1CC[C@@H]1[C@@H]2C(=O)C[C@@]2(C)[C@H]1CC[C@]2(O)C(=O)CO [PREDNISONE]
